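Step 1: Grow cells in 96-well plates. Step 2: Expose to compound for 48 hours at 5 concentrations. Step 3: Interpolate endpoints linearly; if unreached, use highest concentration. TGI marks complete inhibition of growth.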
Key:
Experiment in all cases: DTP human tumour cell line panel, 48 h
HT29 colon = system: HT29 colon
NCI-H226 lung = system: NCI-H226 lung
TK-10 renal = system: TK-10 renal
LOX IMVI melanoma = system: LOX IMVI melanoma
MDA-MB-435 = system: MDA-MB-435
UACC-62 melanoma = system: UACC-62 melanoma
RPMI-8226 leukemia = system: RPMI-8226 leukemia
SN12C renal = system: SN12C renal
SK-MEL-5 melanoma = system: SK-MEL-5 melanoma
SK-MEL-2 melanoma = system: SK-MEL-2 melanoma
786-0 renal = system: 786-0 renal
NCI-H23 lung = system: NCI-H23 lung
SF-539 CNS = system: SF-539 CNS
OVCAR-8 ovarian = system: OVCAR-8 ovarian
COLO 205 colon = system: COLO 205 colon
K-562 leukemia = system: K-562 leukemia
A549 NSCLC = system: A549 NSCLC
EKVX NSCLC = system: EKVX NSCLC
M14 melanoma = system: M14 melanoma
IGROV1 ovarian = system: IGROV1 ovarian
CAKI-1 renal = system: CAKI-1 renal
HL-60(TB) leukemia = system: HL-60(TB) leukemia
HCT-116 colon = system: HCT-116 colon
HCT-15 colon = system: HCT-15 colon
BT-549 breast = system: BT-549 breast
SNB-75 CNS = system: SNB-75 CNS
HCC-2998 colon = system: HCC-2998 colon
MOLT-4 leukemia = system: MOLT-4 leukemia
SK-OV-3 ovarian = system: SK-OV-3 ovarian
OVCAR-3 ovarian = system: OVCAR-3 ovarian
NCI-H460 lung = system: NCI-H460 lung
A498 renal = system: A498 renal
NCI/ADR-RES ovarian = system: NCI/ADR-RES ovarian
SW-620 colon = system: SW-620 colon
OVCAR-5 ovarian = system: OVCAR-5 ovarian
KM12 colon = system: KM12 colon
UACC-257 melanoma = system: UACC-257 melanoma
SF-295 CNS = system: SF-295 CNS
ACHN renal = system: ACHN renal
OVCAR-4 ovarian = system: OVCAR-4 ovarian
DU-145 prostate = system: DU-145 prostate
SF-268 CNS = system: SF-268 CNS
SK-MEL-28 melanoma = system: SK-MEL-28 melanoma
MDA-MB-231 breast = system: MDA-MB-231 breast
U251 CNS = system: U251 CNS
MDA-N = system: MDA-N
UO-31 renal = system: UO-31 renal
PC-3 prostate = system: PC-3 prostate
SR leukemia = system: SR leukemia
HOP-62 NSCLC = system: HOP-62 NSCLC
RXF 393 renal = system: RXF 393 renal
MALME-3M melanoma = system: MALME-3M melanoma
SNB-19 CNS = system: SNB-19 CNS
MCF7 breast = system: MCF7 breast
HOP-92 NSCLC = system: HOP-92 NSCLC
T-47D breast = system: T-47D breast
CCRF-CEM leukemia = system: CCRF-CEM leukemia
HS 578T breast = system: HS 578T breast
NCI-H522 lung = system: NCI-H522 lung

## CCN(C(=O)N[C@@H](C)C(=O)N[C@@H](Cc1ccccc1)C(=O)OC)c1ccccc1
HT29 colon
  TGI: > 100 µM
NCI-H226 lung
  TGI: > 100 µM
TK-10 renal
  TGI: > 100 µM
LOX IMVI melanoma
  TGI: > 100 µM
MDA-MB-435
  TGI: > 100 µM
UACC-62 melanoma
  TGI: > 100 µM
RPMI-8226 leukemia
  TGI: > 100 µM
SN12C renal
  TGI: 73.2 µM
SK-MEL-5 melanoma
  TGI: > 100 µM
SK-MEL-2 melanoma
  TGI: > 100 µM
786-0 renal
  TGI: > 100 µM
NCI-H23 lung
  TGI: > 100 µM
SF-539 CNS
  TGI: > 100 µM
OVCAR-8 ovarian
  TGI: > 100 µM
COLO 205 colon
  TGI: > 100 µM
K-562 leukemia
  TGI: > 100 µM
A549 NSCLC
  TGI: > 100 µM
EKVX NSCLC
  TGI: > 100 µM
M14 melanoma
  TGI: > 100 µM
IGROV1 ovarian
  TGI: > 100 µM
CAKI-1 renal
  TGI: > 100 µM
HL-60(TB) leukemia
  TGI: > 100 µM
HCT-116 colon
  TGI: > 100 µM
HCT-15 colon
  TGI: > 100 µM
BT-549 breast
  TGI: > 100 µM
SNB-75 CNS
  TGI: > 100 µM
HCC-2998 colon
  TGI: > 100 µM
MOLT-4 leukemia
  TGI: > 100 µM
SK-OV-3 ovarian
  TGI: > 100 µM
OVCAR-3 ovarian
  TGI: > 100 µM
NCI-H460 lung
  TGI: 38.4 µM
A498 renal
  TGI: > 100 µM
NCI/ADR-RES ovarian
  TGI: > 100 µM
SW-620 colon
  TGI: > 100 µM
OVCAR-5 ovarian
  TGI: > 100 µM
KM12 colon
  TGI: > 100 µM
UACC-257 melanoma
  TGI: > 100 µM
SF-295 CNS
  TGI: > 100 µM
ACHN renal
  TGI: > 100 µM
OVCAR-4 ovarian
  TGI: > 100 µM
DU-145 prostate
  TGI: > 100 µM
SF-268 CNS
  TGI: > 100 µM
SK-MEL-28 melanoma
  TGI: 78.8 µM
MDA-MB-231 breast
  TGI: > 100 µM
U251 CNS
  TGI: > 100 µM
MDA-N
  TGI: > 100 µM
UO-31 renal
  TGI: > 100 µM
PC-3 prostate
  TGI: > 100 µM
SR leukemia
  TGI: > 100 µM
HOP-62 NSCLC
  TGI: > 100 µM
RXF 393 renal
  TGI: > 100 µM
MALME-3M melanoma
  TGI: 83.8 µM
SNB-19 CNS
  TGI: > 100 µM
MCF7 breast
  TGI: > 100 µM
HOP-92 NSCLC
  TGI: 68 µM
T-47D breast
  TGI: > 100 µM
CCRF-CEM leukemia
  TGI: > 100 µM
HS 578T breast
  TGI: > 100 µM
NCI-H522 lung
  TGI: > 100 µM

## O=C(O)C(O)C(O)C(O)C(O)CO (centres undefined)
HT29 colon
  TGI: > 100 µM
NCI-H226 lung
  TGI: > 100 µM
TK-10 renal
  TGI: > 100 µM
LOX IMVI melanoma
  TGI: > 100 µM
MDA-MB-435
  TGI: > 100 µM
UACC-62 melanoma
  TGI: > 100 µM
RPMI-8226 leukemia
  TGI: > 100 µM
SN12C renal
  TGI: > 100 µM
SK-MEL-5 melanoma
  TGI: > 100 µM
SK-MEL-2 melanoma
  TGI: > 100 µM
786-0 renal
  TGI: > 100 µM
NCI-H23 lung
  TGI: > 100 µM
SF-539 CNS
  TGI: > 100 µM
OVCAR-8 ovarian
  TGI: > 100 µM
COLO 205 colon
  TGI: > 100 µM
K-562 leukemia
  TGI: > 100 µM
A549 NSCLC
  TGI: > 100 µM
EKVX NSCLC
  TGI: > 100 µM
M14 melanoma
  TGI: > 100 µM
IGROV1 ovarian
  TGI: > 100 µM
CAKI-1 renal
  TGI: > 100 µM
HL-60(TB) leukemia
  TGI: > 100 µM
HCT-116 colon
  TGI: > 100 µM
HCT-15 colon
  TGI: > 100 µM
BT-549 breast
  TGI: > 100 µM
SNB-75 CNS
  TGI: > 100 µM
HCC-2998 colon
  TGI: > 100 µM
MOLT-4 leukemia
  TGI: > 100 µM
SK-OV-3 ovarian
  TGI: > 100 µM
OVCAR-3 ovarian
  TGI: > 100 µM
NCI-H460 lung
  TGI: > 100 µM
A498 renal
  TGI: > 100 µM
NCI/ADR-RES ovarian
  TGI: > 100 µM
SW-620 colon
  TGI: > 100 µM
OVCAR-5 ovarian
  TGI: > 100 µM
KM12 colon
  TGI: > 100 µM
UACC-257 melanoma
  TGI: > 100 µM
SF-295 CNS
  TGI: > 100 µM
ACHN renal
  TGI: > 100 µM
OVCAR-4 ovarian
  TGI: > 100 µM
DU-145 prostate
  TGI: > 100 µM
SF-268 CNS
  TGI: > 100 µM
SK-MEL-28 melanoma
  TGI: > 100 µM
MDA-MB-231 breast
  TGI: > 100 µM
U251 CNS
  TGI: > 100 µM
MDA-N
  TGI: > 100 µM
UO-31 renal
  TGI: > 100 µM
PC-3 prostate
  TGI: > 100 µM
SR leukemia
  TGI: > 100 µM
HOP-62 NSCLC
  TGI: > 100 µM
RXF 393 renal
  TGI: > 100 µM
MALME-3M melanoma
  TGI: > 100 µM
SNB-19 CNS
  TGI: > 100 µM
MCF7 breast
  TGI: > 100 µM
HOP-92 NSCLC
  TGI: > 100 µM
T-47D breast
  TGI: > 100 µM
CCRF-CEM leukemia
  TGI: > 100 µM
HS 578T breast
  TGI: > 100 µM
NCI-H522 lung
  TGI: > 100 µM

## Cn1c2ccccc2c2c(=S)c3ccccc3ccc21
HT29 colon
  TGI: > 100 µM
NCI-H226 lung
  TGI: > 100 µM
TK-10 renal
  TGI: > 100 µM
LOX IMVI melanoma
  TGI: > 100 µM
MDA-MB-435
  TGI: > 100 µM
UACC-62 melanoma
  TGI: > 100 µM
SN12C renal
  TGI: > 100 µM
SK-MEL-5 melanoma
  TGI: > 100 µM
786-0 renal
  TGI: > 100 µM
NCI-H23 lung
  TGI: > 100 µM
OVCAR-8 ovarian
  TGI: > 100 µM
COLO 205 colon
  TGI: > 100 µM
K-562 leukemia
  TGI: > 100 µM
A549 NSCLC
  TGI: > 100 µM
EKVX NSCLC
  TGI: > 100 µM
M14 melanoma
  TGI: > 100 µM
IGROV1 ovarian
  TGI: > 100 µM
CAKI-1 renal
  TGI: > 100 µM
HL-60(TB) leukemia
  TGI: > 100 µM
HCT-116 colon
  TGI: > 100 µM
HCT-15 colon
  TGI: > 100 µM
BT-549 breast
  TGI: > 100 µM
SNB-75 CNS
  TGI: > 100 µM
HCC-2998 colon
  TGI: > 100 µM
MOLT-4 leukemia
  TGI: > 100 µM
SK-OV-3 ovarian
  TGI: > 100 µM
OVCAR-3 ovarian
  TGI: > 100 µM
NCI-H460 lung
  TGI: > 100 µM
A498 renal
  TGI: > 100 µM
NCI/ADR-RES ovarian
  TGI: > 100 µM
SW-620 colon
  TGI: > 100 µM
OVCAR-5 ovarian
  TGI: > 100 µM
KM12 colon
  TGI: > 100 µM
UACC-257 melanoma
  TGI: > 100 µM
SF-295 CNS
  TGI: > 100 µM
ACHN renal
  TGI: > 100 µM
OVCAR-4 ovarian
  TGI: > 100 µM
DU-145 prostate
  TGI: > 100 µM
SF-268 CNS
  TGI: > 100 µM
SK-MEL-28 melanoma
  TGI: > 100 µM
MDA-MB-231 breast
  TGI: > 100 µM
U251 CNS
  TGI: > 100 µM
MDA-N
  TGI: > 100 µM
UO-31 renal
  TGI: > 100 µM
PC-3 prostate
  TGI: > 100 µM
SR leukemia
  TGI: > 100 µM
HOP-62 NSCLC
  TGI: > 100 µM
RXF 393 renal
  TGI: > 100 µM
MALME-3M melanoma
  TGI: > 100 µM
SNB-19 CNS
  TGI: > 100 µM
MCF7 breast
  TGI: > 100 µM
HOP-92 NSCLC
  TGI: > 100 µM
T-47D breast
  TGI: > 100 µM
CCRF-CEM leukemia
  TGI: > 100 µM
HS 578T breast
  TGI: > 100 µM
NCI-H522 lung
  TGI: > 100 µM
